Literature values as cited in PMC5854708, “Grass Carp Prolactin Gene: Structural Characterization and Signal Transduction for PACAP-induced Prolactin Promoter Activity” (Scientific Reports, 2018).
Where two headings read alike, the source gives them in different places.

Key:
PAC1 receptors = details: cited from earlier work
Text: (§1) PACAP and vasoactive intestinal peptide (VIP) are members of the glucagon/secretin peptide family and have been reported to play roles in PRL regulation. […] In contrast to VIP, the biological actions of PACAP on ...

[1] = system: PRL gene expression in GH4C1 cells; details: cited from earlier work
Text: as §1

[2] = system: PRL promoter in GH3 cells; details: cAMP-dependent; cited from earlier work
Text: as §1

[3] = system: PRL secretion / PRL gene expression; details: mammals, cited from earlier work
Text: as §1

[4] = system: cAMP production in αT3-1 cells; details: via PAC1 receptors; cited from earlier work

pituitary adenylate cyclase-activating peptide [PACAP]
affinity/specificity at PAC1 receptors (PAC1 receptors): specific for PACAP | effect on PRL gene expression [1]: stimulatory effects | effect on PRL promoter activity [2]: up-regulate PRL promoter activity | effect on PRL secretion ([3]; ref 9, 13): stimulatory | effect on PRL secretion ([3]; ref 14): inhibitory | effect on PRL secretion ([3]; ref 15, 16): no effect | cAMP production [4]: induced
